In patent publication US20150266850A1 (E.I.DU PONT DE NEMOURS AND COMPANY, priority 2012, published 2015):
Marks after values point to notes of the source that are not given here.

Columns and labels:
[1] = Photostability Example: aqueous photolysis under xenon arc lamp simulating natural sunlight for 24 hours, percent remaining relative to dark controls; type: physicochemical; details: 0.670 μg/mL in 80/20 10 mM pH 7 phosphate buffer/acetonitrile, xenon arc lamp 24 hours
Experimental: Aqueous photolysis data is a simple proxy for photostability under field conditions. The following aqueous photolysis data supports the enhanced photostability of the tolyl fungicides of the present invention.
Test compound (0.670 μg/mL) dissolved in 80/20 10 mM pH 7 phosphate buffer/acetonitrile is added to 2-mL borosilicate glass HPLC vials. The addition of 20% acetonitrile is intended to ensure solubility of compounds with low aqueous solubility. Samples are exposed to light in an Atlas Ci65 Burner photolysis chamber fitted with a xenon arc lamp (6500 W) to simulate natural sunlight for 24 hours and compared with samples wrapped in aluminum foil to protect them from light under the same conditions. The 24-hour irradiation is equivalent to ˜2.6 days of average Delaware summer sunlight exposure. Samples are analyzed by HPLC and results are reported as percent remaining based on peak area relative to the dark controls.

[2] = test system: Erysiphe graminis f. sp. tritici; test: Test A: wheat powdery mildew, preventive spray on wheat seedlings, visual disease rating; type: in vivo; details: 100 = 100% disease control; for pest or weed control at 200 ppm / pest or weed control at 40 ppm: Blumeria graminis, 192 h
In short: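 Preventive test: seedlings inoculated with Erysiphe spores one day after run-off spraying at 200 ppm (or 40/50 ppm) in acetone/water plus surfactant. Kept 8 days at 20° C; visual rating as % disease control versus untreated (100 = full control).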

[3] = test system: Puccinia recondita f sp. tritici; test: Test B: wheat leaf rust, preventive spray on wheat seedlings, visual disease rating; type: in vivo; details: 100 = 100% disease control; for pest or weed control at 200 ppm / pest or weed control at 40 ppm: 192 h
In short: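 Preventive spray to run-off on seedlings, one day before spore inoculation; 24 h in saturated atmosphere at 20° C, then 7 days in a 20° C growth chamber before visual rating (100 = full control, 0 = none, relative to controls). Standard rate 200 ppm, equal to 800 g/ha, some at 40 or 50 ppm; compounds in acetone/water with 250 ppm surfactant.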

Septoria tritici = test: Test C: wheat leaf blotch, preventive spray on wheat seedlings, visual disease rating; type: in vivo; details: 100 = 100% disease control; for pest or weed control at 200 ppm / pest or weed control at 40 ppm: Zymoseptoria tritici, 504 h
In short: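 Preventive run-off spray on seedlings at 200 ppm (equal to 800 g/ha), some at 40 or 50 ppm, in acetone/water 50/50 plus 250 ppm Trem® 014. Spore inoculation one day later; 24° C. saturated for 48 h, 20° C. chamber 19 days. Disease scored visually as % control relative to controls.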

Septoria nodorum = test: Test D: wheat glume blotch, preventive spray on wheat seedlings, visual disease rating; type: in vivo; details: 100 = 100% disease control; for pest or weed control at 200 ppm / pest or weed control at 40 ppm: Parastagonospora nodorum, 216 h
In short: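 Disease control (0 = none, 100 = full, relative to controls) was scored visually on wheat seedlings 7 days after a 48 h saturated-humidity incubation at 20° C following Septoria nodorum inoculation. Inoculation came one day after a run-off spray at 200 ppm (some 40 or 50 ppm) in acetone/water plus surfactant.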

Botrytis cinerea = test: Test E: tomato botrytis, preventive spray on tomato seedlings, visual disease rating; type: in vivo; details: 100 = 100% disease control; for pest or weed control at 200 ppm / pest or weed control at 40 ppm: Botrytis cinerea, 120 h
In short: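 Preventive test: seedlings inoculated with Botrytis cinerea spore suspension one day after run-off spraying (200 ppm ≈ 800 g/ha; some 40 or 50 ppm) in acetone/water with 250 ppm surfactant. Incubation 48 h at 20°C saturated humidity, then 3 days at 27°C; disease control rated visually (0–100%) relative to controls.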

## COC(=O)NCc1cc(-n2ccc(-c3ccc(OC)cc3C)n2)ccc1F [10PP]
[1]
  % Cmpd Remaining: 64%

## COC(=O)NCc1cc(-n2ccc(-c3ccc(OC)cc3C)n2)ccc1Cl [10P]
[1]
  % Cmpd Remaining: 0%

## COC(=O)NCc1cc(-n2ncc(-c3ccc(OC)cc3OC)n2)ccc1Cl [17P]
[1]
  % Cmpd Remaining: 0%

## COC(=O)NCc1cc(-c2ccn(-c3ccc(OC)cc3C)n2)ccc1Cl [18P]
[1]
  % Cmpd Remaining: 0%

## COC(=O)NCc1cc(-n2ccc(-c3ccc(OC)cc3OC)n2)ccc1F [23PP]
[1]
  % Cmpd Remaining: 5%

## COC(=O)NCc1cc(-n2ccc(-c3ccc(OC)cc3OC)n2)ccc1Cl [23P]
[1]
  % Cmpd Remaining: 0%

## COC(=O)NCc1cc(-c2ccn(-c3ccc(OC)cc3OC)n2)ccc1Cl [24P]
[1]
  % Cmpd Remaining: 0%

## COC(=O)NCc1cc(-n2ccc(-c3ccc(Cl)cc3OC)n2)ccc1C [Compound 11, methyl N-[[5-[3-(4-chloro-2-methoxyphenyl)-1H-pyrazol-1-yl]-2-methylphenyl]-methyl]carbamate]
[2]; 200 ppm
  pest or weed control at 200 ppm: 100%
[3]; 200 ppm
  pest or weed control at 200 ppm: 100%
Septoria tritici; 200 ppm
  pest or weed control at 200 ppm: 100%
Septoria nodorum; 200 ppm
  pest or weed control at 200 ppm: 100%
Botrytis cinerea; 200 ppm
  pest or weed control at 200 ppm: 56%
other
  melting point: 126 to 127 °C

## COC(=O)NCc1cc(-c2ccn(-c3ccc(OC)cc3C)n2)ccc1C [Compound 18, methyl N-[[5-[1-(4-methoxy-2-methylphenyl)-1H-pyrazol-3-yl]-2-methylphenyl]methyl]carbamate]
[1]
  % Cmpd Remaining: 98%
[2]; 200 ppm
  pest or weed control at 200 ppm: 100%
[3]; 200 ppm
  pest or weed control at 200 ppm: 100%
Septoria tritici; 200 ppm
  pest or weed control at 200 ppm: 100%
Botrytis cinerea; 200 ppm
  pest or weed control at 200 ppm: 44%
other
  melting point: 117 to 120 °C

## COC(=O)NCc1cc(-n2ccc(-c3ccc(OC)cc3OC)n2)ccc1C [Compound 23, methyl N-[[5-[3-(2,4-dimethoxyphenyl)-1H-pyrazol-1-yl]-2-methylphenyl]methyl]carbamate]
[1]
  % Cmpd Remaining: 54%
[2]; 200 ppm
  pest or weed control at 200 ppm: 100%
[3]; 200 ppm
  pest or weed control at 200 ppm: 100%
Septoria tritici; 200 ppm
  pest or weed control at 200 ppm: 100%
Septoria nodorum; 200 ppm
  pest or weed control at 200 ppm: 100%
Botrytis cinerea; 200 ppm
  pest or weed control at 200 ppm: 66%

## COC(=O)NCc1cc(-n2ccc(-c3ccc(Cl)cc3Cl)n2)ccc1C [Compound 31, methyl N-[[5-[3-(2,4-dichlorophenyl)-1H-pyrazol-1-yl]-2-methylphenyl]-methyl]carbamate]
[2]; 200 ppm
  pest or weed control at 200 ppm: 100%
[3]; 200 ppm
  pest or weed control at 200 ppm: 100%
Septoria tritici; 200 ppm
  pest or weed control at 200 ppm: 100%
Septoria nodorum; 200 ppm
  pest or weed control at 200 ppm: 100%
Botrytis cinerea; 200 ppm
  pest or weed control at 200 ppm: 16%
other
  melting point: 101 to 103 °C

## COC(=O)NCc1cc(-n2ccc(-c3ccc(C)cc3C)n2)ccc1C [Compound 38, methyl N-[[5-[3-(2,4-dimethylphenyl)-1H-pyrazol-1-yl]-2-methylphenyl]-methyl]carbamate]
[2]; 40 ppm (*)
  pest or weed control at 40 ppm: 100%
[3]; 40 ppm (*)
  pest or weed control at 40 ppm: 100%
Septoria tritici; 40 ppm (*)
  pest or weed control at 40 ppm: 100%
Septoria nodorum; 40 ppm (*)
  pest or weed control at 40 ppm: 100%
Botrytis cinerea; 40 ppm (*)
  pest or weed control at 40 ppm: 98%

## COC(=O)NCc1cc(-c2ncn(-c3ccc(OC)cc3OC)n2)ccc1C [Compound 54]
[2]; 40 ppm (*)
  pest or weed control at 40 ppm: 99%
[3]; 40 ppm (*)
  pest or weed control at 40 ppm: 100%
Septoria tritici; 40 ppm (*)
  pest or weed control at 40 ppm: 49%
Septoria nodorum; 40 ppm (*)
  pest or weed control at 40 ppm: 100%
Botrytis cinerea; 40 ppm (*)
  pest or weed control at 40 ppm: 49%
other
  melting point: 174 to 177 °C

## COC(=O)NCc1cc(-c2ncn(-c3ccc(OC)cc3C)n2)ccc1C [Compound 70, methyl N-[[5-[1-(4-methoxy-2-methylphenyl)-1H-1,2,4-triazol-3-yl]-2-methylphenyl]methyl]carbamate]
[2]; 40 ppm (*)
  pest or weed control at 40 ppm: 99%
[3]; 40 ppm (*)
  pest or weed control at 40 ppm: 100%
Septoria tritici; 40 ppm (*)
  pest or weed control at 40 ppm: 96%
Septoria nodorum; 40 ppm (*)
  pest or weed control at 40 ppm: 100%
Botrytis cinerea; 40 ppm (*)
  pest or weed control at 40 ppm: 84%

## COC(=O)NCc1cc(-c2ncn(-c3ccc(OC)cc3Cl)n2)ccc1C [Compound 78]
[2]; 40 ppm (*)
  pest or weed control at 40 ppm: 99%
[3]; 40 ppm (*)
  pest or weed control at 40 ppm: 100%
Septoria tritici; 40 ppm (*)
  pest or weed control at 40 ppm: 93%
Septoria nodorum; 40 ppm (*)
  pest or weed control at 40 ppm: 100%
Botrytis cinerea; 40 ppm (*)
  pest or weed control at 40 ppm: 68%
other
  melting point: 145 to 148 °C

## COC(=O)NCc1cc(-c2ncn(-c3ccc(OC)cc3F)n2)ccc1C [Compound 79]
[2]; 40 ppm (*)
  pest or weed control at 40 ppm: 100%
[3]; 40 ppm (*)
  pest or weed control at 40 ppm: 100%
Septoria tritici; 40 ppm (*)
  pest or weed control at 40 ppm: 95%
Septoria nodorum; 40 ppm (*)
  pest or weed control at 40 ppm: 100%
Botrytis cinerea; 40 ppm (*)
  pest or weed control at 40 ppm: 76%
other
  melting point: 164 to 166 °C

## COC(=O)NCc1cc(-n2ncc(-c3ccc(I)cc3OC)[n+]2[O-])ccc1C [Compound 81]
[2]; 200 ppm
  pest or weed control at 200 ppm: 99%
[3]; 200 ppm
  pest or weed control at 200 ppm: 100%
Septoria tritici; 200 ppm
  pest or weed control at 200 ppm: 98%
Septoria nodorum; 200 ppm
  pest or weed control at 200 ppm: 100%
Botrytis cinerea; 200 ppm
  pest or weed control at 200 ppm: 67%

## COC(=O)NCc1cc(-c2ncn(-c3ccc(F)cc3F)n2)ccc1C [Compound 117]
[2]; 200 ppm
  pest or weed control at 200 ppm: 100%
[3]; 200 ppm
  pest or weed control at 200 ppm: 100%
other
  melting point: 156 to 159 °C

## COC(=O)NCc1cc(-c2ncn(-c3ccc(C)cc3C)n2)ccc1C [Compound 118, methyl N-[[5-[1-(2,4-dimethylphenyl)-1H-1,2,4-triazol-3-yl]-2-methylphenyl]methyl]carbamate]
[2]; 200 ppm
  pest or weed control at 200 ppm: 99%
[3]; 200 ppm
  pest or weed control at 200 ppm: 100%
other
  melting point: 148 to 151 °C

## COC(=O)NCc1cc(-c2ncn(-c3ccc(Cl)cc3Cl)n2)ccc1C [Compound 119]
[2]; 200 ppm
  pest or weed control at 200 ppm: 99%
[3]; 200 ppm
  pest or weed control at 200 ppm: 100%
other
  melting point: 152 to 155 °C

## COC(=O)NCc1cc(-c2ccn(-c3ccc(OC)cc3OC)n2)ccc1C [compound 24]
[1]
  % Cmpd Remaining: 78%
[2]; 200 ppm
  Test A disease control rating: 100%
[3]; 200 ppm
  Test B disease control rating: 100%
Septoria tritici; 200 ppm
  Test C disease control rating: 100%
Botrytis cinerea; 200 ppm
  Test E disease control rating: 55%

## methyl N-[[5-[1-(2,4-dimethylphenyl)-1H-pyrazol-3-yl]-2-methylphenyl]-methyl]carbamate [Compound 66]
[2]; 40 ppm (*)
  Test A disease control rating: 100* %
[3]; 40 ppm (*)
  Test B disease control rating: 100* %
Septoria tritici; 40 ppm (*)
  Test C disease control rating: 96* %
Septoria nodorum; 40 ppm (*)
  Test D disease control rating: 100* %
Botrytis cinerea; 40 ppm (*)
  Test E disease control rating: 99* %

## methyl N-[[5-[1-(4-methoxy-2-methylphenyl)-1H-1,2,4-triazol-3-yl]-2-methylphenyl]methyl]carbamate [Compound 70]
[2]; 200 ppm
  Test A disease control rating: 100%
[3]; 200 ppm
  Test B disease control rating: 100%
Septoria tritici; 200 ppm
  Test C disease control rating: 100%
Septoria nodorum; 200 ppm
  Test D disease control rating: 100%
Botrytis cinerea; 200 ppm
  Test E disease control rating: 0%

## methyl N-[[5-[3-(2,4-dimethoxyphenyl)-1H-pyrazol-1-yl]-2-methylphenyl]methyl]carbamate [Compound 23]
[2]; 200 ppm
  Test A disease control rating: 99%
[3]; 200 ppm
  Test B disease control rating: 100%
Septoria tritici; 200 ppm
  Test C disease control rating: 100%
Septoria nodorum; 200 ppm
  Test D disease control rating: 100%
Botrytis cinerea; 200 ppm
  Test E disease control rating: 56%

## methyl N-[[5-[3-(2,6-dimethoxy-3-pyridinyl)-1H-pyrazol-1-yl]-2-methylphenyl]-methyl]carbamate [Compound 46]
[2]; 40 ppm (*)
  Test A disease control rating: 98* %
[3]; 40 ppm (*)
  Test B disease control rating: 100* %
Septoria tritici; 40 ppm (*)
  Test C disease control rating: 98* %
Septoria nodorum; 40 ppm (*)
  Test D disease control rating: 100* %
Botrytis cinerea; 40 ppm (*)
  Test E disease control rating: 92* %

## methyl N-[[5-[4-(2,4-dimethylphenyl)-2H-1,2,3-triazol-2-yl]-2-methylphenyl]-methyl]carbamate [Compound 91]
[2]; 40 ppm (*)
  Test A disease control rating: 100* %
[3]; 40 ppm (*)
  Test B disease control rating: 100* %
Septoria tritici; 40 ppm (*)
  Test C disease control rating: 92* %
Septoria nodorum; 40 ppm (*)
  Test D disease control rating: 100* %
Botrytis cinerea; 40 ppm (*)
  Test E disease control rating: 33* %
